Results published in patent publication US6420371B1, “Quinazolinone-containing pharmaceutical compositions for prevention of neovascularization and for treating malignancies” (Madasit Medical Research Services & Development Co., Ltd., priority 1997, dated 2002).
Values joined by “and” are separate entries in the source; they are usually repeats but may differ in a detail not shown here. Equal entries are not always repeated.

Legend:
[1] = system: T50 bladder carcinoma; experiment: Inhibition of in vivo growth of T50 bladder carcinoma in C3H mice; conditions: for tumor volume (group mean): Halofuginone containing diet 5 mg/kg; for T50 Tumor Size: individual mice, diet containing 5 mg/kg Halofuginone, day 17
Method: C3H mice were divided into two groups (6 mice each). The experimental group received a diet containing 5 mg/kg of Halofuginone 3 days prior to the injection of T50 bladder carcinoma cells and during 2 weeks after. […] The right side received 0.4 * 10^5 cells, and the left side received 2 * 10^5 cells. The tumor size was estimated by measurement of tumor length in two directions, using the formula V=LW^2/2, where V is volume, L is length and W is width. At the end of the experiment at day 17, the mice were weighed, the tumors were excised and a sample of the tumor tissue was fixed and processed for histological examination.

[2] = system: corneal neovascularization; experiment: Murine corneal angiogenesis model (bFGF pellet); format: in vivo, mice; parameters: VL (maximum vessel length of the neovascularization zone): unit not given here; conditions: 2 μg/mouse/day i.p. for 5 days
Method: A murine corneal angiogenesis model was used to evaluate the inhibitory effect of Halofuginone in vivo. The angiogenic factor bFGF was applied into a corneal pocket in a pellet made of a slow release polymer, as described below, and Halofuginone (2 μg/mouse/day) was administered i.p. for 5 consecutive days. The pellets were made of the slow-release polymer Hydron (polyhydroxyethylmethacrylate [polyHEMA], Interferon Sciences, N.J.) containing sucralfate alone, or sucralfate and bGFG. A suspension of sterile saline 10 μg recombinant bFGF plus 10 mg of sucralfate was prepared and speed vacuumed for 5 minutes. To this suspension, 10 μl of 12% Hydron in ethanol was added. The suspension was then deposited onto an autoclave sterilized, 15×15 mm piece of nylon mesh (TETKO, 3-300/50, approximate pore size 0.4×0.4 mm) and embedded between the fibers resulting in a grid of 10×10 squares. Both sides of the mesh were then covered with a thin layer of Hydron to hydrophobically stabilize the pellet during implantation. These layers were allowed to dry on a sterile petri dish for 30 minutes. Subsequently, the fibers of the mesh were pulled apart under a microscope, and about 30-40 uniformly sized pellets of 0.4×0.2×0.2 mm, containing approximately 80-100 ng bGFG per pellet, were collected. Such pellets can be stored frozen at −20° C. for several weeks without loss of bioactivity. C57B⅙ mice of about 7-9 weeks of age were anesthetized with methoxyflurane. The eyes were topically anesthetized with 0.5% proparacaine, and the globe was proposed with a jeweler's forceps. A central, intrastromal linear keratotomy of approximately 0.6 mm length was performed with a surgical blade and a lamellar micropocket was dissected towards the temporal limbus. The temporal extent of the packet was within 0.7-1.0 mm of the limbus. A single pellet was then placed on the corneal surface at the base of the pocket with jeweler's forceps, and using one arm of the forceps, the pellet was advanced toward the temporal end of the pocket. Antibiotic ointment (erythromycin) was applied once to the operated eye, not only to prevent infection, but also to decrease irritation of the irregular ocular surface. […] On post-operative day 5, mice were anesthetized with methoxyflurane, the eyes were proptosed, and the maximum vessel length (VL) of the neovascularization zone extending from the base of the limbal vascular plexus toward the pellet was measured with a linear reticule through the slit lamp. The contiguous circumferential zone of neovascularization (CH) was measured as clock hours with a 360 degree reticule. […] The area of neovascularization was calculated according to the following formula: [formula] where A is area, CH is contiguous circumferential zone of neovascularization and VL is maximal vessel length.

[3] = system: bovine corneal endothelial cells; experiment: Incorporation of sulfate, proline, lysine and glycine into ECM (CDP and NCDP); format: cell-based; conditions: eight days after seeding
Method: Corneal endothelial cells were seeded at a confluent density and grown as described in Example 5 above. The cells were cultured with or without Halofuginone in the presence of either Na2^35SO4 (FIG. 8A), ^3H-proline (FIG. 8B), ^14C-lysine (FIG. 8C) or ^14C-glycine (FIG. […]). Eight days after seeding, the cell layer was dissolved substantially as described in Example 5 above. The underlying ECM was then either trypsinized to determine the effect of Halofuginone on incorporation of labelled material into total protein, substantially as described in Example 5 above, or subjected to sequential digestions with collagenase and trypsin to evaluate the effect of Halofuginone on both collagenase-digestible proteins (CDP) and non-collagenase digestible proteins (NCDP).

[4] = system: human leiomyosarcoma tumor cells; experiment: Proliferation ([3H]thymidine incorporation) of human leiomyosarcoma tumor cells; format: cell-based
Method: Samples of human leiomyosarcoma tumors were obtained from women undergoing surgical hysterectomy, as described [R. S. Mangrulker, et al., ibid.]. Minced tissue was placed into 20 ml cold homogenization buffer: 1 M NaCl, 10 mM Tris (pH 7.4), 1 mM EDTA, 1 mM benzamidine, 0.1% CHAPS, 0.01% Aprotinin (Sigma), 10 μg/ml leupeptin, 1 mM AEBSF [R. S. Mangrulker, et al., ibid]. Samples were homogenized for 2 min and centrifuged at 12000 a g for 60 min at 4° C. The supernatants were diluted 1:5 with 10 mM Tris (pH 7.4) to a final volume of 100 ml and filtered with 0.45 μm nylon fibers. Cells were plated and maintained in DMEM plus 10% calf serum. The cells remained viable over a number of passages but were used at passages 2 or 3. For proliferation assays, cells were plated in 96-well plates at 10,000 cells/well an 200 μl medium (DMEM with 4.5 G/L glucose, 10% calf serum. 1% glutamine, 1% penicillin/streptomycin) and incubated 2 days until confluent. […] The medium was changed to DMEM with 0.5%calf serum, 1 μM insulin and 5 μM transferrin. After 24 h, the samples (5-10 μl) were added and after an additional 24 h, [^3H]thymidine (1 μCi/well) was added to each well. After 36-48 h incubation, the cells were fixed with methanol, and the DNA was precipitated with 5% trichloroacetic acid. The cells were lysed with 150 μl/well of 0.3 N NaOH, transferred to scintillation vials, and counted on a β-counter. […] The effect of Halofuginone on proliferation of HB-EGF (Heparin-Binding Epidermal Growth Factor) and serum-stimulated leiomyosarcoma cells was then examined. The leiomyosarcoma tumor cells were growth-arrested by 48 h incubation in medium containing 0.5% FCS. The cells were then exposed (24 h) to either 10% FCS or 10 ng/ml HB-EGF in the absence or presence of 10 ng/ml Halofuginone. [^3H]thymidine was then added and DNA synthesis measured 36 h later.

[5] = individual mice, post-operative day 5

Which “reduction of tumor size compared to control mice” value ([1]; C3H mice, diet 5 mg/kg Halofuginone) does the source give for `O=C(CC1NCCCC1O)Cn1cnc2cc(Br)c(Cl)cc2c1=O` (centres unmarked) [Halofuginone] here?
The value was 70-80%.

And the “overall weight of mice” value ([1]; Halofuginone treated C3H mice, lower due to lower tumor burden)?
The value was 24 ± 3.1 g.

And the “tumor volume (group mean)” value ([1]; high tumor cell dose)?
The value was 1.0±0.92 cm^3.

And the “T50 Tumor Size” value ([1]; 0.4 * 10^5 cells s.c.)?
The value was 0.730 cm^3 and 0.510 cm^3 and 0.036 cm^3 and 0.064 cm^3 and 0.150 cm^3.

And the “T50 Tumor Size” value ([1]; 2 * 10^5 cells s.c.)?
Its value is 2.0 cm^3 and 1.1 cm^3 (2×) and 0.7 cm^3 and 0.1 cm^3.

And the “tumor volume (group mean)” value ([1]; lower tumor cell dose)?
Its value is 0.29±0.28 cm^3.

What about the “inhibition of neovascularization area vs control” value [2] of the same compound?
The value was “about 29%”.

What about the “average area of neovascularization” value ([2]; n=7, calculated from CH and VL) of the same compound?
The value was 1.90 mm^2.

What about the “CH (contiguous circumferential zone of neovascularization)” value [2, 5] of the same compound?
The value was 3.5 clock hours and 3 clock hours (3×) and 2.5 clock hours and 4 clock hours and 1 clock hours.

What about the “VL (maximum vessel length of the neovascularization zone)” value [2, 5] of the same compound?
The value was 1 (3×) and 1.1 and 1.2 and 0.9.

And the “incorporation of sulfate, proline, lysine and glycine into both CDP and NCDP” value [3]?
The value was “inhibited”.

And the “inhibition of cell proliferation induced by HB-EGF” value ([4]; 10 ng/ml HB-EGF, 10 ng/ml Halofuginone, growth-arrested cells)?
The value was “complete inhibition”.

And the “inhibition of cell proliferation induced by serum” value ([4]; 10% FCS, 10 ng/ml Halofuginone, growth-arrested cells)?
Its value is “complete inhibition”.

And the inhibition at 0.0025 µg/mL ([4]; Homo sapiens, 2.5 ng/ml Halofuginone (FIG. 11A))?
Its inhibition at 0.0025 µg/mL is 60 to 70%.
